Data as given in patent publication US7820722B2, “Permeation enhancers” (Merrion Research III Limited, priority 2001, dated 2010).
Strand notation (5' to 3'): a small letter for the sugar, then the base; units joined by * are phosphorothioate-linked, units joined directly phosphodiester-linked; [ ] holds rarer units or linkages, { } end groups; capitals alone tell only the bases. e = 2'-O-(2-methoxyethyl) (MOE); [5mC] = 5-methylcytosine; d = 2'-deoxy (DNA)

Experiments:
[1] = Solubility of the enhancer system in phosphate buffer saline
[2] = Bioavailability of antisense oligonucleotide after intra-jejunal dosing through a catheter, plasma level by anion-exchange chromatography (Example 3); assay type: in vivo, male rhesus monkeys; conditions: rhesus monkey, po
Excerpt: The compositions were compared by administering them in solution form through a catheter to test subjects. A jejunal catheter is surgically implanted in six male rhesus monkeys (3-5 years, 3-5 Kg) under anesthesia. The catheters are attached to a subcutaneous access port to allow dosing through the port into the jejunum. The animals are allowed to recover at least 7 days prior to dosing. […] The antisense oligonucleotide is detected by anion-exchange chromatography. The formulations and the measurements of bioavailability, Tmax and plasma peak of antisense oligonucleotide after administration of formulations are described in the chart below.

Compound	Solubility in phosphate buffer saline [1]	permeability without any permeation enhancer systems [2]
CCCCCCCCCCC(CCCCCCCC)C(=O)[O-].[Na+] (centres unmarked) [sodium 2-n-octyl-dodecanoate]	not fully soluble	–
antisense oligonucleotide: 5-10-5 MOE gapmer phosphorothioate, 5-methylcytosines, targets human TNF-α; GCTGATTAGAGAGAGGTCCC (antisense eG*e[5mC]*eT*eG*eA*dT*dT*dA*dG*dA*dG*dA*dG*dA*dG*eG*eT*e[5mC]*e[5mC]*e[5mC])	–	poor permeability
